From PMC8570331, “8-Hydroxyquinoline-Amino Acid Hybrids and Their Half-Sandwich Rh and Ru Complexes: Synthesis, Anticancer Activities, Solution Chemistry and Interaction with Biomolecules” (International Journal of Molecular Sciences, 2021)
Like-named read-outs stand apart in the source and are kept apart here.

Experiments:
[1] = system: Colo-205 human colon adenocarcinoma cell line (doxorubicin-sensitive); test: MTT cytotoxicity assay in Colo-205; type: cell-based; conditions: Homo sapiens, COLO 205, 72 h incubation
Protocol: (§1) The in vitro cytotoxic activity of the novel water-soluble amino acid derivatives of HQCl and their RhCp* and RuCym complexes was measured by the thiazolyl blue tetrazolium bromide (MTT) assay in two human colon adenocarcinoma cell lines (Colo-205 and Colo-320) and in one non-tumoral human lung fibroblast cell line (MRC-5). The results are given in terms of IC50 values (Table 1). Colo-205 is a drug-sensitive cell line with a normal ABCB1 transporter expression pattern, while Colo-320 is multidrug-resistant and overexpresses the ABCB1 system.
(§2) All cell culture reagents were obtained from Sigma-Aldrich and plasticware from Sarstedt (Nümbrecht, Germany). Human colonic Colo-205 doxorubicin-sensitive and Colo-320/MDR-LRP multidrug-resistant adenocarcinoma and MRC-5 human embryonal lung fibroblast cell lines were purchased from LGC Promochem, Teddington, UK. The colonic adenocarcinoma cells were cultured in Roswell Park Memorial Institute (RPMI) 1640 medium supplemented with 10% heat-inactivated fetal bovine serum, 2 mM L-glutamine, 1 mM sodium pyruvate and […]. The MRC-5 cell line was cultured in Eagle’s Minimal Essential Medium (EMEM, Sigma-Aldrich, St. Louis, MO, USA) supplemented with a non-essential amino acid (NEAA) mixture (Sigma-Aldrich, St. Louis, MO, USA) a selection of vitamins, 10% heat-inactivated foetal bovine serum (FBS), 2 mM L-glutamine (Sigma-Aldrich, St. Louis, MO, USA), 1 mM Na-pyruvate (Sigma-Aldrich, St. Louis, MO, USA), nystatin (Sigma-Aldrich, St. Louis, MO, USA) and a penicillin-streptomycin mixture (Sigma-Aldrich, St. Louis, MO, USA) in con-centrations of 100 U/L and 10 mg/L, respectively. The cells were incubated at 37 °C, in a 5% CO2, 95% air atmosphere. All cell lines were detached with Trypsin-Versene (EDTA) solution for 5 min at 37 °C.
(§3) The tested compounds were dissolved in 10% (v/v) DMSO/H2O using 4 mM concentration. Doxorubicin (Merck, Darmstadt, Germany) was used as a positive control. Then stock solutions were diluted in complete culture medium, and two-fold serial dilutions of compounds were prepared in 100 μL of the medium, horizontally. The semi-adherent colonic adenocarcinoma cells were treated with Trypsin-Versene (EDTA) solution. They were adjusted to a density of 1 × 10^4 cells in 100 μL of RPMI 1640 or EMEM medium and were added to each well, with the exception of the medium control wells. The final volume of the wells containing compounds and cells was 200 μL. The plates containing Colo-205, Colo-320 or MRC-5 cells were incubated at 37 °C for 72 h; at the end of the incubation period, 20 μL of MTT solution (from a stock solution of 5 mg/mL) were added to each well. After incubation at 37 °C for 4 h, 100 μL of SDS solution (10% in 0.01 M HCI) were added to each well, and the plates were further incubated at 37 °C overnight. […] The IC50 values were obtained from at least 3 independent experiments.

[2] = system: Colo-320 human colon adenocarcinoma cell line (multidrug-resistant); test: MTT cytotoxicity assay in Colo-320; type: cell-based; conditions: Homo sapiens, COLO 320, 72 h incubation
Protocol: as §1, §2, §3

[3] = system: MRC-5 human lung fibroblast cell line; test: MTT cytotoxicity assay in MRC-5; type: cell-based; conditions: Homo sapiens, MRC5, 72 h incubation
Protocol: as §1, §2, §3

[4] = design: method as in PMID 32500882; conditions: cited from earlier work
Ac-Phe–His–Ala-NH2 (FHA) = system: Ac-Phe–His–Ala-NH2 (FHA); design: method as in PMID 34374386; conditions: cited from earlier work
Ac-Ala–His–Ala-NH2 (AHA) = system: Ac-Ala–His–Ala-NH2 (AHA); design: method as in PMID 34374386; conditions: cited from earlier work
[5] = biological target: T1, HSA site I (subdomain IIA) (Homo sapiens, UniProt P02768); design: method as in PMID 34374386; conditions: cited from earlier work
T1 construct: purchased Sigma-Aldrich A8763
T1 sequence (P02768 25-609): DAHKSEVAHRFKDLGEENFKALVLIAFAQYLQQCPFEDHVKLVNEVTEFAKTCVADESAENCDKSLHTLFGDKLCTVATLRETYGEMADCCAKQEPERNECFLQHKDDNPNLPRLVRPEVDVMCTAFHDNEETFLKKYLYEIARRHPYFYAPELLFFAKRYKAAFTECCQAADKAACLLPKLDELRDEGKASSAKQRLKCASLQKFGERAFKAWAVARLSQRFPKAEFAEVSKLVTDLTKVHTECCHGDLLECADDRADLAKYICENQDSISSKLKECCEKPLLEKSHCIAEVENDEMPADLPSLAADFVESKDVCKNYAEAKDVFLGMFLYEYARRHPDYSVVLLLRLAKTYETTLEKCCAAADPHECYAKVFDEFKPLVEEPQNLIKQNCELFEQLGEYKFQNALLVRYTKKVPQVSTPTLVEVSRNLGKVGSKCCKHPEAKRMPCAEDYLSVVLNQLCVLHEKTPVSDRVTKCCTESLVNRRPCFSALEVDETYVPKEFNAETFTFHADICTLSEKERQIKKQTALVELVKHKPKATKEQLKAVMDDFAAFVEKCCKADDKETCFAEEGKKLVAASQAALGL

[6] = biological target: T2, HSA site II (subdomain IIIA) (Homo sapiens, UniProt P02768); design: method as in PMID 34374386; conditions: cited from earlier work
T2 construct: purchased Sigma-Aldrich A8763
T2 sequence (P02768 25-609): as above

Colo-205 cells = test: Annexin V-FITC / propidium iodide apoptosis induction assay, flow cytometry; type: cell-based, human; conditions: 3 h induction
Text: 12H-Benzo[α]phenothiazine (M627) and cisplatin were used as positive controls. Annexin-V assay offers the possibility of detecting early phases of apoptosis. Apoptosis is a morphologically and biochemically distinct form of programmed cell death, which is the preferred mode of action for an anticancer compound. PI was used to distinguish between viable, early apoptotic and necrotic or late apoptotic cells. […] In order to better understand the different behavior of the studied compounds, an in-depth analysis of the various solution (physico-)chemical properties of the ligands and complexes were performed.
The assay was carried out using an Annexin V-FITC Apoptosis Detection Kit from Sigma-Aldrich according to the manufacturer’s instructions. The concentration of the Colo-205 cell suspension was adjusted to approximately 0.5 × 10^6 cells per mL in RPMI 1640 medium, and the cell suspension was distributed in 1 mL aliquots into a 24-well plate and then incubated overnight at 37 °C and 5% CO2. The next day, the medium was removed and replaced by 1 mL RPMI 1640 medium containing the compounds except for the control samples. […] After the incubation period, the samples were washed with PBS, and a fresh medium was added to the samples. The cells were incubated overnight at 37 °C and 5% CO2. The next day, 200 μL 0.25% Trypsin (Trypsin-Versen) was added to the samples until cells appeared detached, followed by the addition of 400 μL of medium supplemented with 10% bovine serum. The cells were collected in Eppendorf tubes and centrifuged at 2000× g for 2 min. The harvested cells were re-suspended in a fresh serum-free RPMI 1640 culture medium. After this step, the apoptosis assay was carried out according to the protocol of the kit. The fluorescence was analyzed immediately using a ParTec CyFlow flow cytometer (Partec GmbH, Münster, Germany).

[7] = Proton dissociation constants of the ligands (pH-potentiometry, UV-vis, 1H NMR titrations); type: physicochemical; conditions: for pKa: aqueous solution, I = 0.2 M KNO3, T = 25.0 °C
Protocol: pH-potentiometric measurements were carried out at 25.0 ± 0.1 °C in water in the pH range between 2.0 and 11.5 and at a constant ionic strength of 0.2 M KNO3. The titrations were performed in a carbonate-free KOH solution (0.20 M). The exact concentrations of HNO3 and KOH solutions were determined by pH-potentiometric titrations. An Orion 710A pH-meter equipped with a Metrohm combined electrode (type 6.0234.100) and a Metrohm 665 Dosimat burette were used for the pH-potentiometric measurements. […] The average water ionization constant, pKw, was determined as 13.76 ± 0.01, which is in good agreement with the literature data. The initial volume of the samples was 5.0 mL. The ligand concentration was 1.75 or 2.0 mM. Samples were degassed by bubbling purified argon through them for about 10 min prior to the measurements, and the inert gas was also passed over the solutions during the titrations. The computer program Hyperquad2013 [46] was utilized to establish the stoichiometry of the species and to calculate the equilibrium constants, similarly to that performed in our previous works.
Agilent Cary 8454 diode array spectrophotometer was utilized to obtain UV-vis spectra in the wavelength range 190–1100 nm. The path length (ℓ) was 1 cm in most cases (the actual ℓ is always indicated in the legends of the figures). The concentrations of the ligands and complexes were between 88 and 240 µM. For HSA and ct-DNA containing samples, complex concentrations were 100 µM, and 0.5 and 2 equiv. biomolecule were added for kinetic studies, respectively. Individual samples contained 0–20 µM HSA and 0–1.75 mM (nucleotide) ct-DNA. Spectra were always background corrected. The computer program HypSpec was used to obtain stability constants.
Bruker Avance III HD Ascend 500 Plus instrument (Billerica, MA, USA) was used for NMR studies. ^1H NMR spectroscopic measurements were carried out with a WATERGATE water suppression pulse scheme in the presence of 10% (v/v) D2O in most cases. DSS internal standard was added to samples to obtain reference peaks. Complex concentrations were 0.5 mM or 1.0 mM, and 0.5 equiv. HSA was added. ^1H NMR titrations were carried out in the presence of 0.2 M KNO3. With the FHA model peptide, the measurements were performed at 0.5 or 1 mM metal complex concentrations, and 1:1, 1:2 or 2:1 peptide-to-metal complex ratios were applied. The computer program HypSpec was used to obtain stability constants.

[8] = Distribution coefficients, shake-flask n-octanol/buffered aqueous solution; type: physicochemical; conditions: pH 7.4, n-octanol/buffer, in 100 mM KCl, read-out: logD7.4
Protocol: It is worth noting that these amino acid hybrids have excellent water solubility due to their zwitterionic form, unlike most 8-hydroxyquinolines.
Distribution coefficients of the ligands as well as of the complexes were determined at pH = 7.4 using the traditional shake-flask method in n-octanol/buffered aqueous solution (20 mM phosphate) at different chloride ion concentrations (4, 24 and 100 mM) using UV-vis spectrophotometry for the analysis. The measurement and data evaluation were performed as described in our former work.

[9] = system: Colo-205 human colon adenocarcinoma cell line (doxorubicin-sensitive); design: method as in PMID 32500882; conditions: cited from earlier work
[10] = system: Colo-320 human colon adenocarcinoma cell line (multidrug-resistant); design: method as in PMID 32500882; conditions: cited from earlier work
[11] = design: method as in PMID 32500882; conditions: cited from earlier work; remark: listed apart in the source

COc1cccc2c1C(=O)c1c(O)c3c(c(O)c1C2=O)C[C@@](O)(C(=O)CO)C[C@@H]3O[C@H]1C[C@H](N)[C@H](O)[C@H](C)O1 [doxorubicin, reference compound]
IC50 [1]: 0.05 ± 0.01 µM | IC50 [2]: 0.19 ± 0.02 µM | IC50 [3]: 0.82 ± 0.16 µM

Cc1c(C)c(C)[c-](C)c1C.O=C(O)[C@@H]1CCC[NH+]1Cc1cc(Cl)c2cccnc2c1[O-].[Cl-].[Cl-].[Rh+3] [RhCp*–HQCl-L-Pro, [RhCp*(HQCl-L-Pro)Cl]Cl]
stability constant logK of the RhCp* complex [4]: 13.41 | FHA logKFHA′ (Ac-Phe–His–Ala-NH2 (FHA)): 4.7 | reaction time with the tripeptides (Ac-Phe–His–Ala-NH2 (FHA)): few seconds | logK′ (AHA) (Ac-Ala–His–Ala-NH2 (AHA)): 4.2 | Trp-214 Quenching logKQ′, Site I [5]: 5.5 | DG Displacement logKDG′, Site II [6]: 5.6

N.N.[Cl][Pt][Cl] [cisplatin, reference compound]
cell death, gated events (Colo-205 cells; 15 μM): 3.18% | early apoptosis, gated events (Colo-205 cells; 15 μM): 1.06% | late apoptosis and necrosis, gated events (Colo-205 cells; 15 μM): 4.70%

c1ccc2c(c1)Nc1c(ccc3ccccc13)S2 [M627, 12H-Benzo[α]phenothiazine, reference compound]
cell death, gated events (Colo-205 cells; 10 μM): 15.2% | early apoptosis, gated events (Colo-205 cells; 10 μM): 5.27% | late apoptosis and necrosis, gated events (Colo-205 cells; 10 μM): 16.8% | cell death (Q1), gated events (Colo-205 cells; 20 μM): 20.9% | early apoptosis (Q3), gated events (Colo-205 cells; 20 μM): 21.7% | late apoptosis and necrosis (Q2), gated events (Colo-205 cells; 20 μM): 36.2%

O=C(O)[C@H]1CCCN1Cc1cc(Cl)c2cccnc2c1O [HQCl-D-Pro, (R)-5-chloro-7-((proline-1-yl)methyl)8-hydroxyquinoline]
IC50 [3]: 5.33 ± 0.44 µM | pKa ([7]; 1H NMR, read-out: pKa (NhPro/ProH+)): > 11 | pKa ([7]; 1H NMR, read-out: pKa (NqH+)): 2.32 ± 0.03 | pKa ([7]; 1H NMR, read-out: pKa (OH)): 7.75 ± 0.02 | pKa ([7]; UV-vis, read-out: pKa (NhPro/ProH+)): > 11 | pKa ([7]; UV-vis, read-out: pKa (NqH+)): 2.13 ± 0.03 | pKa ([7]; UV-vis, read-out: pKa (OH)): 7.77 ± 0.04 | pKa ([7]; pH-potentiometry, read-out: pKa (NhPro/ProH+)): > 11 | pKa ([7]; pH-potentiometry, read-out: pKa (NqH+)): < 2 | pKa ([7]; pH-potentiometry, read-out: pKa (OH)): 7.71 ± 0.06 | fraction of the negatively charged species (O−, COO−, NhPro/ProH+) ([7]; at pH 7.4): 30% | logD [8]: -0.02 ± 0.01

Cc1ccc(C(C)C)cc1.O=C(O)[C@@H]1CCC[NH+]1Cc1cc(Cl)c2cccnc2c1[O-].[Cl-].[Cl-].[Ru+2] [RuCym–HQCl-L-Pro, [RuCym(HQCl-L-Pro)Cl]Cl]
FHA logKFHA′ (Ac-Phe–His–Ala-NH2 (FHA)): 5.1 | reaction time with the tripeptides (Ac-Phe–His–Ala-NH2 (FHA)): 3 h | logK′ (AHA) (Ac-Ala–His–Ala-NH2 (AHA)): 4.4 | Trp-214 Quenching logKQ′, Site I [5]: 5.7 | DG Displacement logKDG′, Site II [6]: 6.1

O=C(O)[C@@H]1CCCN1Cc1cc(Cl)c2cccnc2c1O [HQCl-L-Pro, (S)-5-chloro-7-((proline-1-yl)methyl)8-hydroxyquinoline]
IC50 [3]: 4.57 ± 0.21 µM | IC50 [9]: 23.4 µM | IC50 [10]: 8.5 µM | pKa (NH+Pro) [11]: > 11.5 | pKa (NqH+) [11]: 2.36 | pKa (OH) [11]: 7.76
